Results: patent publication US20050234065A1, “Dipeptidyl peptidase-IV inhibitors” (Pfizer Inc, priority 2004, published 2005)

What follows are molecules tested against T1, DPP-IV (Homo sapiens, UniProt P27487) (assay: In vitro assay for dipeptidyl peptidase inhibition). Conditions: IC50 (concentration of test compound required for 50% inhibition), hydrochloride salts; Gly-Pro-4-methoxy B naphthylamide substrate; overnight at 37° C.
T1 construct: purchased Enzyme Systems Products SPE-01
Assay type: biochemical
Description: 150 μL of an enzyme-substrate solution was pipetted into microtiter wells of a polystyrene 96-well plate, and maintained at 4° C. The enzyme-substrate solution comprised 50 μM Gly-Pro-4-methoxy B naphthylamide HCl in 50 mM Tris assay buffer pH 7.3 containing 0.1M sodium chloride, 0.1% (v/v) Triton and 50 μU/mL DPP-IV (Enzyme Systems Products Cat#SPE-01, DPP-IV 5 mU/mL stock). 5 μL/well of compounds of Formula (I) were added, bringing the final compound of Formula (I) concentrations to 3 μM-10 nM per well.
Controls. Enzyme was omitted from four (4) wells, as a reagent blank. 5 μL of 3 mM Diprotin A was added to four wells as a positive quality control, providing a final Diprotin A concentration of 100 μM. To measure total enzyme activity (i.e. a negative control), without the influence of any compounds of Formula (I), 5 μL of distilled water was added to four wells.
The entire assay was incubated overnight (about 14-18 hours) at 37° C.

T1 sequence (P27487 whole entry, species assumed): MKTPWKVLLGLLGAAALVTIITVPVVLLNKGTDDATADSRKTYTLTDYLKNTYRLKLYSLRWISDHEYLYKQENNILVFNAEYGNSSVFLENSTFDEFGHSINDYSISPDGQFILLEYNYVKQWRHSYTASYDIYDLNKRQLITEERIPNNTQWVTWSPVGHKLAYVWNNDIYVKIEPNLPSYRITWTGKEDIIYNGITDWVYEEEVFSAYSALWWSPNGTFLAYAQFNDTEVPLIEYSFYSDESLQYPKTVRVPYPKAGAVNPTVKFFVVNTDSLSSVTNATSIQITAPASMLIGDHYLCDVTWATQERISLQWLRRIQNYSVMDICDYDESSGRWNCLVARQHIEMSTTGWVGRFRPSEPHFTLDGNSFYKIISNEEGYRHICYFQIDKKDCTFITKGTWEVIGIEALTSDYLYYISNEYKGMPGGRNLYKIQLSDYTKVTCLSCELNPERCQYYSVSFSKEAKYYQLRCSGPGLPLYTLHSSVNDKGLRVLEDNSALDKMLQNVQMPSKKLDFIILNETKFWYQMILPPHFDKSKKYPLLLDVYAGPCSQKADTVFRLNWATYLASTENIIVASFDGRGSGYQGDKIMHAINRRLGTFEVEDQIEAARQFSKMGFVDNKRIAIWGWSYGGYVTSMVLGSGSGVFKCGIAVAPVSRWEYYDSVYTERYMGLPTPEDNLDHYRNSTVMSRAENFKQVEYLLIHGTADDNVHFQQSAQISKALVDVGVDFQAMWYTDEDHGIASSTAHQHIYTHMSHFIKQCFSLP

For `CN(CC(=O)N[C@H]1CC[C@H]([C@H](N)C(=O)N2CCC(F)(F)C2)CC1)C(=O)Oc1ccccc1` [Example 33, ({trans-4-[(1S)-1-amino-2-(3,3-difluoro-pyrrolidin-1-yl)-2-oxo-ethyl]-cyclohexylcarbamoyl}-methyl)-methyl-carbamic acid phenyl ester], the IC50 was ≤ 0.1 µM.

Same assay, conditions: hydrochloride salts; Gly-Pro-4-methoxy B naphthylamide substrate; overnight at 37° C.; read-out: IC50 (concentration of test compound required for 50% inhibition)

`N#C[C@@H]1CCCN1C(=O)[C@@H](N)[C@H]1CC[C@H](NC(=O)c2cn3cccc3cn2)CC1` [Example 56, N-(trans-4-{(S)-1-amino-2-[(2S)-2-cyanopyrrolidin-1-yl]-2-oxoethyl}cyclohexyl)pyrrolo[1,2-a]pyrazine-3-carboxamide] and `C#Cc1coc2cnc(C(=O)N[C@H]3CC[C@H]([C@H](N)C(=O)N4CCC[C@H]4C#N)CC3)cc12` [Example 62, N-(trans-4-{(S)-1-amino-2-[(2S)-2-cyanopyrrolidin-1-yl]-2-oxoethyl}cyclohexyl)-3-ethynylfuro[2,3-c]pyridine-5-carboxamide] cannot be ordered by IC50: ≤ 0.1 µM for the first, ≤ 0.1 µM for the second.

`N#C[C@@H]1CCCN1C(=O)[C@@H](N)[C@H]1CC[C@H](NC(=O)c2nccnc2N)CC1` [Example 36, 3-amino-pyrazine-2-carboxylic acid {trans-4-[(1S)-1-amino-2-((2S)-2-cyano-pyrrolidin-1-yl)-2-oxo-ethyl]-cyclohexyl}-amide] and `Nc1nccnc1C(=O)N[C@H]1CC[C@H]([C@H](N)C(=O)N2CC[S+]([O-])C2)CC1` (stereo partly drawn) [Example 49, 3-amino-pyrazine-2-carboxylic acid {trans-4-[(1S)-1-amino-2-oxo-2-(1-oxo-1×4-thiazolidin-3-yl)-ethyl]-cyclohexyl}-amide] cannot be ordered by IC50: ≤ 0.1 µM for the first, 0.1 to 0.5 µM for the second.

`N[C@H](C(=O)N1CCCC1)[C@H]1CC[C@H](NC(=O)[C@@H]2COCN2C(=O)OCc2ccccc2)CC1` [Example 11, (4S)-4-[trans-4-((1S)-1-amino-2-oxo-2-pyrrolidin-1-yl-ethyl)-cyclohexylcarbamoyl]-oxazolidine-3-carboxylic acid benzyl ester] and `N[C@H](C(=O)N1CCCC1)[C@H]1CC[C@@H](NC(=O)[C@H]2COCN2C(=O)OCc2ccccc2)CC1` [Example 5, (4R)-4-[cis-4-((1S)-1-amino-2-oxo-2-pyrrolidin-1-yl-ethyl)-cyclohexylcarbamoyl]-oxazolidine-3-carboxylic acid benzyl ester] cannot be ordered by IC50: ≤ 0.1 µM for the first, 0.1 to 0.5 µM for the second.

`N[C@H](C(=O)N1CCC(F)(F)C1)[C@H]1CC[C@H](NC(=O)[C@@H]2C[C@@H](O)CN2C(=O)OCc2ccccc2)CC1` [Example 31, 2-{trans-4-[1-(1S)-amino-2-(3,3-difluoro-pyrrolidin-1-yl)-2-oxo-ethyl]-cyclohexylcarbamoyl}-(4R)-4-hydroxy-pyrrolidine-1-carboxylic acid benzyl ester] and `N[C@H](C(=O)N1CCC(F)(F)C1)[C@H]1CC[C@H](NC(=O)[C@@H]2CNC(=O)N2C(=O)OCc2ccccc2)CC1` [Example 29, (5S)-5-{trans-4-[(1S)-1-amino-2-(3,3-difluoro-pyrrolidin-1-yl)-2-oxo-ethyl]-cyclohexylcarbamoyl}-2-oxo-imidazolidine-1-carboxylic acid benzyl ester] cannot be ordered by IC50: ≤ 0.1 µM for the first, ≤ 0.1 µM for the second.

`Cc1cc(C)n2cnc(C(=O)N[C@H]3CC[C@H]([C@H](N)C(=O)N4CCC[C@H]4C#N)CC3)cc12` [Example 59, N-(trans-4-{(1S)-1-amino-2-[(2S)-2-cyanopyrrolidin-1-yl]-2-oxoethyl}cyclohexyl)-5,7-dimethylpyrrolo[1,2-c]pyrimidine-3-carboxamide] and `CN(CC(=O)N[C@H]1CC[C@H]([C@H](N)C(=O)N2CCC[C@H]2C#N)CC1)C(=O)OCc1ccccc1` [Example 37, ({trans-4-[(1S)-1-amino-2-((2S)-2-cyano-pyrrolidin-1-yl)-2-oxo-ethyl]-cyclohexylcarbamoyl}-methyl)-methyl-carbamic acid benzyl ester] cannot be ordered by IC50: ≤ 0.1 µM for the first, ≤ 0.1 µM for the second.

Going from `N[C@H](C(=O)N1CCCC1)[C@H]1CC[C@H](NC(=O)N2CCC[C@H]2COCc2ccccc2)CC1` [Example 25, 2-benzyloxymethyl-pyrrolidine-1-carboxylic acid [trans-4-((1S)-1-Amino-2-oxo-2-pyrrolidin-1-yl-ethyl)-cyclohexyl]-amide] to `N[C@H](C(=O)N1CCCC1)[C@H]1CC[C@@H](NC(=O)[C@@H]2COCN2C(=O)OCc2ccccc2)CC1` [Example 6, (4S)-4-[cis-4-((1S)-1-amino-2-oxo-2-pyrrolidin-1-yl-ethyl)-cyclohexylcarbamoyl]-oxazolidine-3-carboxylic acid benzyl ester], the IC50 rises from ≤ 0.1 µM to > 0.5 µM.

`NC(C(=O)N1CCCC1)C1CCC(NC(=O)C2CC(O)CN2)CC1` [Example 21, (1S,4R)-4-hydroxy-pyrrolidine-2-carboxylic acid [trans-4-((1S)-1-amino-2-oxo-2-pyrrolidin-1-yl-ethyl)-cyclohexyl]-amide] and `Cc1nn(C)c(C(=O)N[C@H]2CC[C@H]([C@H](N)C(=O)N3CCCC3)CC2)c1N` [Example 48, (S)-4-amino-2,5-dimethyl-2H-pyrazole-3-carboxylic acid [trans-4-(1-amino-2-oxo-2-pyrrolidin-1-yl-ethyl)-cyclohexyl]-amide] cannot be ordered by IC50: 0.1 to 0.5 µM for the first, ≤ 0.1 µM for the second.

Going from `N[C@H](C(=O)N1CCCC1)[C@H]1CC[C@@H](NC(=O)[C@@H]2CNC(=O)N2C(=O)OCc2ccccc2)CC1` [Example 7, (5S)-5-[cis-4-((1S)-1-amino-2-oxo-2-pyrrolidin-1-yl-ethyl)-cyclohexylcarbamoyl]-2-oxo-imidazolidine-1-carboxylic acid benzyl ester] to `N[C@H](C(=O)N1CCCC1)[C@H]1CC[C@H](NC(=O)[C@@H]2CNC(=O)N2C(=O)OCc2ccccc2)CC1` [Example 9, (5S)-5-[trans-4-((1S)-1-amino-2-oxo-2-pyrrolidin-1-yl-ethyl)-cyclohexylcarbamoyl]-2-oxo-imidazolidine-1-carboxylic acid benzyl ester], the IC50 falls from > 0.5 µM to ≤ 0.1 µM. The second is the more potent here.

`N[C@H](C(=O)N1CCCC1)[C@H]1CC[C@H](NC(=O)CC[C@H]2C(=O)OCN2C(=O)OCc2ccccc2)CC1` [Example 10, (4S)-4-{2-[trans-4-((1S-)-1-amino-2-oxo-2-pyrrolidin-1-yl-ethyl)-cyclohexylcarbamoyl]-ethyl}-5-oxo-oxazolidine-3-carboxylic acid benzyl ester] and `N[C@H](C(=O)N1CCCC1)[C@H]1CC[C@H](NC(=O)[C@H]2CCC(=O)N2C(=O)OCc2ccccc2)CC1` [Example 15, (2R)-2-[trans-4-(1-(S)-amino-2-oxo-2-pyrrolidin-1-yl-ethyl)-cyclohexylcarbamoyl]-5-oxo-pyrrolidine-1-carboxylic acid benzyl ester] cannot be ordered by IC50: ≤ 0.1 µM for the first, ≤ 0.1 µM for the second.

`NC(=O)c1nccnc1C(=O)N[C@H]1CC[C@H]([C@H](N)C(=O)N2CCCC2)CC1` [Example 19, (S)-pyrazine-2,3-dicarboxylic acid amide [trans-4-(1-amino-2-oxo-2-pyrrolidin-1-yl-ethyl)-cyclohexyl]-amide] and `Nc1nccnc1C(=O)N[C@H]1CC[C@H]([C@H](N)C(=O)N2CCC(F)(F)C2)CC1` [Example 32, (S)-3-amino-pyrazine-2-carboxylic acid {trans-4-[1-amino-2-(3,3-difluoro-pyrrolidin-1-yl)-2-oxo-ethyl]-cyclohexyl}-amide] cannot be ordered by IC50: ≤ 0.1 µM for the first, ≤ 0.1 µM for the second.

`N[C@H](C(=O)N1CCCC1)[C@H]1CC[C@H](N2Cc3ccccc3S2(=O)=O)CC1` [Example 50, (2S)-2-amino-2-[trans-4-(1,1-dioxo-1,3-dihydro-1λ^6-benzo[d]isothiazol-2-yl)-cyclohexyl]-1-pyrrolidin-1-yl-ethanone] and `N[C@H](C(=O)N1CCCC1)[C@H]1CC[C@H](N2Cc3ncccc3C2=O)CC1` [Example 42, 6-[trans-4-((1S)-1-amino-2-oxo-2-pyrrolidin-1-yl-ethyl)-cyclohexyl]-6,7-dihydro-pyrrolo[3,4-b]pyridin-5-one] cannot be ordered by IC50: ≤ 0.1 µM for the first, ≤ 0.1 µM for the second.

Compared with `N[C@H](C(=O)N1CCCC1)[C@H]1CC[C@H](NC(=O)[C@@H]2COC(=O)N2Cc2ccccc2)CC1` [Example 16, (4S)-3-benzyl-2-oxo-oxazolidine-4-carboxylic acid [trans-4-((1S)-1-Amino-2-oxo-2-pyrrolidin-1-yl-ethyl)-cyclohexyl]-amide], `N[C@H](C(=O)N1CCCC1)[C@H]1CC[C@@H](NC(=O)CNC(=O)c2ccccc2)CC1` [Example 1, N-{[cis-4-((1S)-1-amino-2-oxo-2-pyrrolidin-1-yl-ethyl)-cyclohexylcarbamoyl]-methyl}-benzamide] is higher in IC50: ≤ 0.1 µM for the first, > 0.5 µM for the second.

`CN(C(=O)OCc1ccccc1)C(C)(C)C(=O)N[C@H]1CC[C@H]([C@H](N)C(=O)N2CCCC2)CC1` [Example 17, (S)-{1-[trans-4-(1-amino-2-oxo-2-pyrrolidin-1-yl-ethyl)-cyclohexylcarbamoyl]-1-methyl-ethyl)-methyl-carbamic acid benzyl ester] and `N[C@H](C(=O)N1CCCC1)[C@H]1CC[C@H](NC(=O)CN2C(=O)c3ccccc3/C2=C\c2ccccc2)CC1` [Example 20, N-[trans-4-(1-(1S)-amino-2-oxo-2-pyrrolidin-1-yl-ethyl)-cyclohexyl]-2-(1-benzylidene-3-oxo-1,3-dihydro-isoindol-2-yl)-acetamide] cannot be ordered by IC50: 0.1 to 0.5 µM for the first, ≤ 0.1 µM for the second.

Same assay, conditions: hydrochloride salts; Gly-Pro-4-methoxy B naphthylamide substrate; overnight at 37° C.; read-out: IC50 (concentration of test compound required for 50% inhibition), bound given in μM

`N[C@H](C(=O)N1CCCC1)[C@H]1CC[C@@H](NC(=O)[C@@H]2CNC(=O)N2C(=O)OCc2ccccc2)CC1` [Example 7, (5S)-5-[cis-4-((1S)-1-amino-2-oxo-2-pyrrolidin-1-yl-ethyl)-cyclohexylcarbamoyl]-2-oxo-imidazolidine-1-carboxylic acid benzyl ester] and `N[C@H](C(=O)N1CCCC1)[C@H]1CC[C@@H](NC(=O)[C@@H]2COCN2C(=O)OCc2ccccc2)CC1` [Example 6, (4S)-4-[cis-4-((1S)-1-amino-2-oxo-2-pyrrolidin-1-yl-ethyl)-cyclohexylcarbamoyl]-oxazolidine-3-carboxylic acid benzyl ester] cannot be ordered by IC50: ≤ 1 µM for the first, ≤ 1 µM for the second.
